Data taken from ChEMBL document CHEMBL2086238, “Identification of ETP-46321, a potent and orally bioavailable PI3K α, δ inhibitor” (Bioorg Med Chem Lett, 2012).
Blank lines part the entries; values can stand above or below the molecule they belong to.

Key:
[1] = biological target: Phosphatidylinositol 4,5-bisphosphate 3-kinase catalytic subunit alpha isoform (Homo sapiens, UniProt P42336); experiment: Inhibition of PI3Kalpha in human U2OS cells assessed as inhibition of AKT Ser 473 phosphorylation by Western blot; assay type: cell-based
[2] = biological target: PI3-kinase p110-alpha/p85-alpha (Homo sapiens, UniProt P42336); experiment: Inhibition of human PI3Kalpha (p110alpha/p85alpha) by ADP accumulation based HTRF assay; assay type: protein-complex assay; details: for Ki: read-out: Ki(app)
[3] = Stability in human liver microsomes at 1 uM incubated for 15 mins; assay type: ADME, Microsome; details: read-out: Stability
[4] = Stability in mouse liver microsomes at 1 uM incubated for 15 mins; assay type: ADME, Microsome; details: read-out: Stability
CYP1A2 = biological target: T1, CYP1A2 (Homo sapiens, UniProt P05177); experiment: Inhibition of CYP1A2 at 10 uM; assay type: ADME
T1 sequence (P05177 whole entry): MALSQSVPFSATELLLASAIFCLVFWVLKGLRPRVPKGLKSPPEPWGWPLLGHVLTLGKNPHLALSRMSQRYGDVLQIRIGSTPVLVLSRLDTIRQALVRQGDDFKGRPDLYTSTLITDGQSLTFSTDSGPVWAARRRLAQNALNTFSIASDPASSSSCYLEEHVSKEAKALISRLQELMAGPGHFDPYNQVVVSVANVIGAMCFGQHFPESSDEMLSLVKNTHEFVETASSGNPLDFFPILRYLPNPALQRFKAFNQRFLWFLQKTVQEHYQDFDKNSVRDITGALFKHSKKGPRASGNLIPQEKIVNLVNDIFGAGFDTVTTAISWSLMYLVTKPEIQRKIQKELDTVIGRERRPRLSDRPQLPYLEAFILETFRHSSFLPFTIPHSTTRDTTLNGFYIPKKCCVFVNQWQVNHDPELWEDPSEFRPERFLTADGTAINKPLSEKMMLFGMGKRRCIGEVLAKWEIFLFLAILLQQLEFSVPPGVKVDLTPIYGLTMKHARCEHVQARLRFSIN

CYP2C9 = CYP2C9 (Homo sapiens, UniProt P11712); experiment: Inhibition of CYP2C9 at 10 uM; assay type: ADME
CYP2C19 = CYP2C19 (Homo sapiens, UniProt P33261); experiment: Inhibition of CYP2C19 at 10 uM; assay type: ADME
CYP2D6 = CYP2D6 (Homo sapiens, UniProt P10635); experiment: Inhibition of CYP2D6 at 10 uM; assay type: ADME
CYP3A4 = CYP3A4 (Homo sapiens, UniProt P08684); experiment: Inhibition of CYP3A4 at 10 uM; assay type: ADME
PI3K p110 beta/p85 alpha = PI3K p110 beta/p85 alpha (Homo sapiens, UniProt P42338); experiment: Inhibition of human PI3Kbeta (p110beta/p85alpha) by ADP accumulation based HTRF assay; assay type: protein-complex assay; details: read-out: Ki(app)
[5] = biological target: PI3-kinase p110-delta/p85-alpha (Homo sapiens, UniProt O00329); experiment: Inhibition of human PI3Kdelta (p110delta/p85alpha) by ADP accumulation based HTRF assay; assay type: protein-complex assay; details: read-out: Ki(app)
[6] = biological target: Phosphatidylinositol 4,5-bisphosphate 3-kinase catalytic subunit gamma isoform (Homo sapiens, UniProt P48736); experiment: Inhibition of human PI3Kgamma by ADP accumulation based HTRF assay; details: read-out: Ki(app)
Chain of Phosphatidylinositol 4,5-bisphosphate 3-kinase catalytic subunit gamma isoform (P48736 whole entry, canonical isoform): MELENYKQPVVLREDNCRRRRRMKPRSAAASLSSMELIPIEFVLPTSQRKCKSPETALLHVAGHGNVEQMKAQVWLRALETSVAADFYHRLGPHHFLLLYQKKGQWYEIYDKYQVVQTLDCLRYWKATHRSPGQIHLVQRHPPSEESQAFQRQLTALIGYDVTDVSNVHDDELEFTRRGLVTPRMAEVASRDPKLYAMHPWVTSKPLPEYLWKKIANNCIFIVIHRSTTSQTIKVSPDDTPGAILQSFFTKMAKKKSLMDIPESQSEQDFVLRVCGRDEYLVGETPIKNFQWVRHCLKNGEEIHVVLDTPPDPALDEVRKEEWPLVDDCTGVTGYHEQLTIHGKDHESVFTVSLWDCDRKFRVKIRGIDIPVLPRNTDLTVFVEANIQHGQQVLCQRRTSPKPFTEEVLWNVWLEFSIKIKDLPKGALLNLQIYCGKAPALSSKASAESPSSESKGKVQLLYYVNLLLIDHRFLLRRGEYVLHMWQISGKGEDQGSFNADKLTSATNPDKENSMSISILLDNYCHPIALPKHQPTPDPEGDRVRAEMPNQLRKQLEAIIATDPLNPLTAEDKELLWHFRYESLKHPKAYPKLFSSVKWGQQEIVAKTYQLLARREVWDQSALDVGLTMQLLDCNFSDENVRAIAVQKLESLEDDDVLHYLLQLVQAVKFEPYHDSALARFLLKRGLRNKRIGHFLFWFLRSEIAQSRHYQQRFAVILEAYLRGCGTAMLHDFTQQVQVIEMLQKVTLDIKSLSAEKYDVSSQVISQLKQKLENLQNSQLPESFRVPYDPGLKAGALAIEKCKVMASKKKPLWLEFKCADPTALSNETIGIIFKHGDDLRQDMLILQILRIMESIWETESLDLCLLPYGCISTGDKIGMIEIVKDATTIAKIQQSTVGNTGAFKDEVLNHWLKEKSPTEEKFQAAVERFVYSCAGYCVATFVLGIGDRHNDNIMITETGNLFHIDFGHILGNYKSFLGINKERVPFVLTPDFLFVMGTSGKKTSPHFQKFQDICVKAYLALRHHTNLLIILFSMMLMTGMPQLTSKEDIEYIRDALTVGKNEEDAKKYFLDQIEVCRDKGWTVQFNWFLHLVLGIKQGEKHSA

Chain of Phosphatidylinositol 4,5-bisphosphate 3-kinase catalytic subunit alpha isoform (P42336 whole entry, canonical isoform): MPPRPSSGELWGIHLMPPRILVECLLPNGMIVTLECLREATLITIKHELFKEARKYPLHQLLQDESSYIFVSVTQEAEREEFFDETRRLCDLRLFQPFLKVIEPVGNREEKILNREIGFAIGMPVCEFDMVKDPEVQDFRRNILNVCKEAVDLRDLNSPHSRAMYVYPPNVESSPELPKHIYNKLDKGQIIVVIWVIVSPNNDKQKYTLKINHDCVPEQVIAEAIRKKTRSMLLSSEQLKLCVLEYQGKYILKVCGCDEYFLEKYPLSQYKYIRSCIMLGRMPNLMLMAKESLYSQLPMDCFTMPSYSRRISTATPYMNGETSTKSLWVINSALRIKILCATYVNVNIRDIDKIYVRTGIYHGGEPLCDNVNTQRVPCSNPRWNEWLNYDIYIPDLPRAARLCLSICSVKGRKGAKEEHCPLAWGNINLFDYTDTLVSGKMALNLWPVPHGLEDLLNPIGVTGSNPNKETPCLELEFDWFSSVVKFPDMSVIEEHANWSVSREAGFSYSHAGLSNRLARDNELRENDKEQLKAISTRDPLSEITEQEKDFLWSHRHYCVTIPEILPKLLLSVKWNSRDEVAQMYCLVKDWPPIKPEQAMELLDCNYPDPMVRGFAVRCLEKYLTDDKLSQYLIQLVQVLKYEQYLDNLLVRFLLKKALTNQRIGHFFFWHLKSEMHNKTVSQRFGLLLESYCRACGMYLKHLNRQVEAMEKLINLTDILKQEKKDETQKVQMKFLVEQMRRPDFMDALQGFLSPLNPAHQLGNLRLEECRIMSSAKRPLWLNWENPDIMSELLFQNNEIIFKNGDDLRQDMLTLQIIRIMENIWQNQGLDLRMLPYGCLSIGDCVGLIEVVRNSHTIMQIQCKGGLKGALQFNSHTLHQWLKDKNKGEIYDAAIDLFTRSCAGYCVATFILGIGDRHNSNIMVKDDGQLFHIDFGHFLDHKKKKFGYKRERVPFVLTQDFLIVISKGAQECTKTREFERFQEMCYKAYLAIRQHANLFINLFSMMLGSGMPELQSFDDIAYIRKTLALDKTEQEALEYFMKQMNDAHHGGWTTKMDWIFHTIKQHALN
Chain of PI3-kinase p110-alpha/p85-alpha (P27986 whole entry): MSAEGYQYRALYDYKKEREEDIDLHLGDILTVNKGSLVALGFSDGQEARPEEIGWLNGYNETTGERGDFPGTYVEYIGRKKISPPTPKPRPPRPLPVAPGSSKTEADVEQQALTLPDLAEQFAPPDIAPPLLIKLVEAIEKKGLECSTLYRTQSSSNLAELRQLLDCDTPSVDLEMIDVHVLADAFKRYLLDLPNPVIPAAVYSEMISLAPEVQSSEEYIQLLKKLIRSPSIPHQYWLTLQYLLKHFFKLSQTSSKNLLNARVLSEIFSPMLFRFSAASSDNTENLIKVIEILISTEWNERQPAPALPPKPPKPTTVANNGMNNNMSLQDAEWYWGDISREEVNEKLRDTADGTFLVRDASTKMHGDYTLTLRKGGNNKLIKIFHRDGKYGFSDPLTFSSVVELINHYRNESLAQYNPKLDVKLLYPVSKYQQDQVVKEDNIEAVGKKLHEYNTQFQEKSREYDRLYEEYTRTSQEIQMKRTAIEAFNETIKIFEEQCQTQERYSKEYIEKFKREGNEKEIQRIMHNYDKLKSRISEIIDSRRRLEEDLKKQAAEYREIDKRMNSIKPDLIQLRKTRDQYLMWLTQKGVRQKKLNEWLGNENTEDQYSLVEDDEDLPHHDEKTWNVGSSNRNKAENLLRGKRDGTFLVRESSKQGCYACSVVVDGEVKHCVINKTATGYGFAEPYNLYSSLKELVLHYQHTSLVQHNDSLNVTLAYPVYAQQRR
Chain of PI3-kinase p110-alpha/p85-alpha (P42336 whole entry): as the sequence (P42336 whole entry, canonical isoform) above
Chain of CYP3A4 (P08684 whole entry): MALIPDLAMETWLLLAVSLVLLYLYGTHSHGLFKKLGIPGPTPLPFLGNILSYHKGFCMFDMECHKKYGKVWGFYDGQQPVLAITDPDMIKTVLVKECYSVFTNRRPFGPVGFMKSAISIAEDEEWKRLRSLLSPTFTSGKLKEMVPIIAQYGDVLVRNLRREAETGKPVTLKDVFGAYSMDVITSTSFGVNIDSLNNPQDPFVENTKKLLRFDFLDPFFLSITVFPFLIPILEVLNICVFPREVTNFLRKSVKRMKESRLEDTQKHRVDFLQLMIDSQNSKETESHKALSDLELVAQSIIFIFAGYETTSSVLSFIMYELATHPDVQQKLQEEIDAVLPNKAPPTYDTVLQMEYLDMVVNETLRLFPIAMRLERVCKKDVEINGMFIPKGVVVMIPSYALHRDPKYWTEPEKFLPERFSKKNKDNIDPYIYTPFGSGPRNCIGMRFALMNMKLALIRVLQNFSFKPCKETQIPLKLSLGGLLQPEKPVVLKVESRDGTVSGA
Chain of PI3-kinase p110-delta/p85-alpha (P27986 whole entry, canonical isoform): as the sequence (P27986 whole entry) above
Chain of PI3-kinase p110-delta/p85-alpha (O00329 whole entry, canonical isoform): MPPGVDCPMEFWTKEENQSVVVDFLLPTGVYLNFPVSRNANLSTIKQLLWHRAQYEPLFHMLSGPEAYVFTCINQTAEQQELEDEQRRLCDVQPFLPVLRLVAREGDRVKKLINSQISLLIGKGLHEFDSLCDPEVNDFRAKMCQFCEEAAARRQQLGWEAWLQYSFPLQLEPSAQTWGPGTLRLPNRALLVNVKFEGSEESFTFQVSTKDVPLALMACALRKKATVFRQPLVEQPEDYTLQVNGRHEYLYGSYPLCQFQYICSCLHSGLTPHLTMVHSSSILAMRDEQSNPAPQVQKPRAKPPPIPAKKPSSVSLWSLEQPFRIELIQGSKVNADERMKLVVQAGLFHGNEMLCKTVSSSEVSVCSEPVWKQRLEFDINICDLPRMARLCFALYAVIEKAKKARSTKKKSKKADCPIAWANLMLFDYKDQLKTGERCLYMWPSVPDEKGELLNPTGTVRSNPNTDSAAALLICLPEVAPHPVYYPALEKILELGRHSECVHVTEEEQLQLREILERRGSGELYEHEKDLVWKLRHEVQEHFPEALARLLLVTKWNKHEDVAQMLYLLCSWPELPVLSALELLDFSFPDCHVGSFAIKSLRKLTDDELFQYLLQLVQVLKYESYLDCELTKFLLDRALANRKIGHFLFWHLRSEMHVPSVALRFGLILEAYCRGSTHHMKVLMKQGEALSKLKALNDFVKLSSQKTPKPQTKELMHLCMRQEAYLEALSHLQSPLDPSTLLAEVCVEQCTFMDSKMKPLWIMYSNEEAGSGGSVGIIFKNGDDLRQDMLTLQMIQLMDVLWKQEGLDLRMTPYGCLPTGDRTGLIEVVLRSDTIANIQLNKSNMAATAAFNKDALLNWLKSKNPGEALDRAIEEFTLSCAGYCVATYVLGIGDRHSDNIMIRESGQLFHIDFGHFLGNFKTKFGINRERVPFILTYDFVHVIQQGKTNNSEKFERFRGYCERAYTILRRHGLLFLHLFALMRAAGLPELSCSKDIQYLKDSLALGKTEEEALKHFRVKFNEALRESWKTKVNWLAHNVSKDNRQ
Chain of CYP2C19 (P33261 whole entry): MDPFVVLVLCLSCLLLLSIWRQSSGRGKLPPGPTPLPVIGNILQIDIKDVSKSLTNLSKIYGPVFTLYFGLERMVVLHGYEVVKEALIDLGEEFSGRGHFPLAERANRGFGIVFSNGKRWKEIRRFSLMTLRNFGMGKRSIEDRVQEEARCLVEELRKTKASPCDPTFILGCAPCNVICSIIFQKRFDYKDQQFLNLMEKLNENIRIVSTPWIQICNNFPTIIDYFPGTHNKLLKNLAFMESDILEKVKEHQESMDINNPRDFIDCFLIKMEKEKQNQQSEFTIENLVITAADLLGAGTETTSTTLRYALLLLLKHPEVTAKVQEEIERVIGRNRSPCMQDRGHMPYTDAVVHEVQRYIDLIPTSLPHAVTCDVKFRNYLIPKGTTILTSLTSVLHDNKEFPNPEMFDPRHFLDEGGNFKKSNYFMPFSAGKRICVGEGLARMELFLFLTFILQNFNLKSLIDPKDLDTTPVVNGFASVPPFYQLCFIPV

- IC50 [1]: 0.0102 µM
- IC50 [2]: 0.0068 µM
- Ki [2]: 0.0074 µM
- remaining at 0.25 h, 1 µM [3]: 82%
- remaining at 0.25 h, 1 µM [4]: 96%
- inhibition at 10 µM (CYP1A2): < 30%
- inhibition at 10 µM (CYP2C9): < 30%
- inhibition at 10 µM (CYP2C19): < 30%
- inhibition at 10 µM (CYP2D6): < 30%
- inhibition at 10 µM (CYP3A4): < 30%
- Ki (PI3K p110 beta/p85 alpha): 0.0798 µM
- Ki [5]: 0.00506 µM
- Ki [6]: 0.0267 µM
Structure (SMILES): CS(=O)(=O)N1CCN(Cc2cn3cc(-c4cnc(N)nc4C(F)(F)F)nc(N4CCOCC4)c3n2)CC1

- IC50 [2]: 0.0068 µM
Structure (SMILES): CS(=O)(=O)N1CCN(Cc2cn3c(Cl)c(-c4cnc(N)nc4C(F)(F)F)nc(N4CCOCC4)c3n2)CC1

- IC50 [2]: > 10 µM
Structure (SMILES): CS(=O)(=O)N1CCN(Cc2cn3cc(-c4ccc5[nH]ncc5c4)nc(N4CCOCC4)c3n2)CC1

- IC50 [2]: 0.0114 µM
Structure (SMILES): CNc1ncc(-c2nc(N3CCOCC3)c3nc(CN4CCN(S(C)(=O)=O)CC4)cn3c2Cl)cn1

- IC50 [2]: 0.123 µM
Structure (SMILES): CS(=O)(=O)N1CCN(Cc2cn3cc(-c4cncnc4)nc(N4CCOCC4)c3n2)CC1

- IC50 [2]: 2.5 µM
Structure (SMILES): CS(=O)(=O)N1CCN(Cc2cn3cc(-c4cccc5[nH]ccc45)nc(N4CCOCC4)c3n2)CC1

- IC50 [2]: > 10 µM
Structure (SMILES): CS(=O)(=O)N1CCN(Cc2cn3cc(-c4ccc5[nH]ccc5c4)nc(N4CCOCC4)c3n2)CC1

- IC50 [2]: 0.013 µM
Structure (SMILES): Cc1nc(N)ncc1-c1nc(N2CCOCC2)c2nc(CN3CCN(S(C)(=O)=O)CC3)cn2c1Cl

- IC50 [2]: 0.0346 µM
Structure (SMILES): C[C@H](O)C(=O)N1CCN(Cc2cn3cc(-c4cnc(N)nc4)nc(N4CCOCC4)c3n2)CC1

- IC50 [2]: 0.0287 µM
Structure (SMILES): CS(=O)(=O)C1CCN(Cc2cn3cc(-c4cnc(N)nc4)nc(N4CCOCC4)c3n2)CC1

The next lines start with the molecule.

Structure (SMILES): CN(C)CC(=O)N1CCN(Cc2cn3cc(-c4cnc(N)nc4)nc(N4CCOCC4)c3n2)CC1
- IC50 [1]: 0.48 µM

Structure (SMILES): C[C@@H]1CN(Cc2cn3cc(-c4cnc(N)nc4)nc(N4CCOCC4)c3n2)CCN1S(C)(=O)=O
- IC50 [2]: 0.0026 µM

Structure (SMILES): CS(=O)(=O)N1C2CCC1CN(Cc1cn3cc(-c4cnc(N)nc4)nc(N4CCOCC4)c3n1)C2
- IC50 [2]: 0.108 µM

Structure (SMILES): Cc1ncc(-c2nc(N3CCOCC3)c3nc(CN4CCN(S(C)(=O)=O)CC4)cn3c2Cl)cn1
- IC50 [2]: 0.0216 µM

Structure (SMILES): CCS(=O)(=O)N1CCN(Cc2cn3cc(-c4cnc(N)nc4)nc(N4CCOCC4)c3n2)CC1
- IC50 [1]: 0.0985 µM
- IC50 [2]: 0.0133 µM
- remaining at 0.25 h, 1 µM [3]: 98%
- remaining at 0.25 h, 1 µM [4]: 64%
- inhibition at 10 µM (CYP1A2): < 30%
- inhibition at 10 µM (CYP2C9): < 30%
- inhibition at 10 µM (CYP2C19): < 30%
- inhibition at 10 µM (CYP2D6): < 30%
- inhibition at 10 µM (CYP3A4): < 30%

Structure (SMILES): CS(=O)(=O)N1CCN(Cc2cn3cc(-c4cnc(N)c(C#N)c4)nc(N4CCOCC4)c3n2)CC1
- IC50 [2]: 1.01 µM

Structure (SMILES): CS(=O)(=O)N1CC2CN(Cc3cn4cc(-c5cnc(N)nc5)nc(N5CCOCC5)c4n3)CC2C1 (centres undefined)
- IC50 [2]: 0.117 µM

Structure (SMILES): C[C@@H]1CN(S(C)(=O)=O)C[C@H](C)N1Cc1cn2cc(-c3cnc(N)nc3)nc(N3CCOCC3)c2n1
- IC50 [1]: 0.244 µM
- IC50 [2]: 0.0032 µM

Structure (SMILES): C[C@H]1CN(Cc2cn3cc(-c4cnc(N)nc4)nc(N4CCOCC4)c3n2)CCN1S(C)(=O)=O
- IC50 [1]: 0.12 µM
- IC50 [2]: 0.0055 µM
- Ki [2]: 0.0062 µM
- Ki (PI3K p110 beta/p85 alpha): 0.319 µM
- Ki [5]: 0.0147 µM
- Ki [6]: 0.124 µM

Structure (SMILES): CNc1ncc(-c2cn3cc(CN4CCN(S(C)(=O)=O)CC4)nc3c(N3CCOCC3)n2)cn1
- IC50 [2]: 0.0164 µM

Structure (SMILES): COc1cncc(-c2cn3cc(CN4CCN(S(C)(=O)=O)CC4)nc3c(N3CCOCC3)n2)c1
- IC50 [2]: 1.11 µM

Structure (SMILES): COc1ncc(-c2cn3cc(CN4CCN(S(C)(=O)=O)CC4)nc3c(N3CCOCC3)n2)cn1
- IC50 [2]: 0.16 µM

Structure (SMILES): CS(=O)(=O)N1CCN(Cc2cn3c(Cl)c(-c4cnc5[nH]ccc5c4)nc(N4CCOCC4)c3n2)CC1
- IC50 [2]: 0.166 µM
